Where “and” joins values, the source holds several entries; their conditions need not be identical. Identical values can stand only once. Toxic doses and inconclusive results are not listed. Peptide text beside a SMILES is read from it. * marks the point of attachment. Cbz = O=C(OCc1ccccc1)*

The subject of this test is P388 leukemia ip, CD2F1 mice, survival T/C. Put plainly: NCI In Vivo Anticancer Drug Screen. Data for tumor model P388 Leukemia (intraperitoneal) in CD2F1 (CDF1) mice. Conditions: endpoint: median survival time, higher = longer survival. Summed up: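 Mice carrying the transplanted tumor received test compound or vehicle. Survival was recorded in each group, and the value is the treated-group measurement divided by that of the vehicle-treated control group.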

Setting [1] is: dose: 50.0 mg/kg/injection, schedule: Q01DX005 (ip), vehicle: Klucel (hydroxypropylcellulose) (HPC).
Where [2] appears, read: dose: 100.0 mg/kg/injection, schedule: Q01DX005 (ip), vehicle: Klucel (hydroxypropylcellulose) (HPC).
The mark [3] stands for this setting: dose: 200.0 mg/kg/injection, schedule: Q01DX005 (ip), vehicle: Klucel (hydroxypropylcellulose) (HPC).
Setting [4] is: dose: 60.0 mg/kg/injection, schedule: Q01DX005 (ip), vehicle: saline with Tween-80.
Setting [5] is: dose: 120.0 mg/kg/injection, schedule: Q01DX005 (ip), vehicle: saline with Tween-80.
Where [6] appears, read: dose: 240.0 mg/kg/injection, schedule: Q01DX005 (ip), vehicle: saline with Tween-80.
Setting [7] is: dose: 60.0 mg/kg/injection, schedule: Q01DX005 (ip), vehicle: saline.
[8] abbreviates: dose: 120.0 mg/kg/injection, schedule: Q01DX005 (ip), vehicle: saline.
Setting [9] is: dose: 240.0 mg/kg/injection, schedule: Q01DX005 (ip), vehicle: saline.
Where [10] appears, read: dose: 50.0 mg/kg/injection, schedule: Q01DX009 (ip), vehicle: Klucel (hydroxypropylcellulose) (HPC).
[11] abbreviates: dose: 50.0 mg/kg/injection, schedule: Q01DX009 (ip), vehicle: saline with Tween-80.
[12] abbreviates: dose: 100.0 mg/kg/injection, schedule: Q01DX009 (ip), vehicle: Klucel (hydroxypropylcellulose) (HPC).
[13] abbreviates: dose: 100.0 mg/kg/injection, schedule: Q01DX009 (ip), vehicle: saline with Tween-80.
Where [14] appears, read: dose: 200.0 mg/kg/injection, schedule: Q01DX009 (ip), vehicle: Klucel (hydroxypropylcellulose) (HPC).
The mark [15] stands for this setting: dose: 200.0 mg/kg/injection, schedule: Q01DX009 (ip), vehicle: saline with Tween-80.
[16] abbreviates: dose: 50.0 mg/kg/injection, schedule: Q01DX009 (ip), vehicle: saline.
Where [17] appears, read: dose: 100.0 mg/kg/injection, schedule: Q01DX009 (ip), vehicle: saline.

Regarding `COC1=CC=C2CC(=C1)CCC1C2CCC2(C)C(=O)CCC12` (stereo not drawn), the T/C under setting [1] is 100 % of control, the T/C under setting [2] is 96 % of control and the T/C under setting [3] was 91 % of control.
With `CC1(C)COP(=O)(c2ccccc2)N1` (stereo not drawn), the T/C reads like this: under setting [4], 103 % of control; under setting [5], 107 % of control; under setting [6], 101 % of control.
`CN(CCO)c1cnn(CCO)c(=O)c1Cl`: the T/C was 102 % of control under setting [7], 105 % of control under setting [8] and 102 % of control under setting [9].
As to `CNc1ccc2[nH]c3ccccc3c2c1`, the T/C runs as follows: under setting [4], 104 % of control; under setting [5], 112 % of control; under setting [6], 104 % of control.
As for `Nc1ccc2nc3ccc(N)cc3[n+](-c3ccccc3)c2c1`, the T/C by setting is: (dose: 0.39 mg/kg/injection, schedule: Q04DX003 (ip), vehicle: saline) 100 % of control; (dose: 0.78 mg/kg/injection, schedule: Q04DX003 (ip), vehicle: saline) 95 % of control; (dose: 1.56 mg/kg/injection, schedule: Q04DX003 (ip), vehicle: saline) 95 % of control; (dose: 3.13 mg/kg/injection, schedule: Q04DX003 (ip), vehicle: saline) 95 % of control; (dose: 6.25 mg/kg/injection, schedule: Q04DX003 (ip), vehicle: saline) 95 % of control; (dose: 8.0 mg/kg/injection, schedule: Q01DX009 (ip), vehicle: saline with Tween-80) 154 % of control. Further, the T/C reads like this: (dose: 12.0 mg/kg/injection, schedule: Q01DX009 (ip), vehicle: saline with Tween-80) 154 % of control; (dose: 12.5 mg/kg/injection, schedule: Q04DX003 (ip), vehicle: saline) 95 % of control; (dose: 18.0 mg/kg/injection, schedule: Q01DX009 (ip), vehicle: saline with Tween-80) 86 % of control.
On to `CCC(C)C1C(=O)O[B-](F)(F)/[N+]1=C\c1ccccc1` (stereo not drawn), for which the T/C by setting is: (dose: 100.0 mg/kg/injection, schedule: Q04DX003 (ip), vehicle: Klucel (hydroxypropylcellulose) (HPC)) 104 % of control; (dose: 200.0 mg/kg/injection, schedule: Q04DX003 (ip), vehicle: Klucel (hydroxypropylcellulose) (HPC)) 109 % of control.
As for `C=C1C(=O)C23C(OC(=O)CCC)C1CCC2C12COC3(O)C(O)C1C(C)(C)CCC2O` (stereo not drawn), the T/C is, setting by setting: (dose: 3.75 mg/kg/injection, schedule: Q01DX009 (ip), vehicle: saline with Tween-80) 102 % of control; (dose: 7.5 mg/kg/injection, schedule: Q01DX009 (ip), vehicle: saline with Tween-80) 101 % of control; (dose: 15.0 mg/kg/injection, schedule: Q01DX009 (ip), vehicle: saline with Tween-80) 107 % of control; (dose: 30.0 mg/kg/injection, schedule: Q01DX009 (ip), vehicle: saline with Tween-80) 111 % of control.
Consider `O=C(Nc1ccccc1O)C1C(=O)C(=O)N(c2ccccc2O)C1=O` (stereo not drawn), for which the T/C by setting is: (dose: 25.0 mg/kg/injection, schedule: Q01DX009 (ip), vehicle: saline with Tween-80) 97 % of control; under setting [10], 101 % of control and 105 % of control and 107 % of control; under setting [11], 105 % of control; under setting [12], 99 % of control and 101 % of control (2×); under setting [13], 97 % of control; under setting [14], 106 % of control. The T/C under setting [15] is 102 % of control.
Consider `CC(O)C(NCNC(=O)C1=C(O)C2(O)C(=O)C3=C(O)c4c(O)cccc4C(C)(O)C3CC2C(N(C)C)C1=O)C(=O)O` (stereo not drawn), for which the T/C was 107 % of control (dose: 25.0 mg/kg/injection, schedule: Q01DX005 (ip), vehicle: saline); 108 % of control (dose: 50.0 mg/kg/injection, schedule: Q01DX005 (ip), vehicle: saline); 111 % of control (dose: 100.0 mg/kg/injection, schedule: Q01DX005 (ip), vehicle: saline); 104 % of control (dose: 100.0 mg/kg/injection, schedule: Q04DX003 (ip), vehicle: saline with Tween-80); 100 % of control (dose: 200.0 mg/kg/injection, schedule: Q01DX005 (ip), vehicle: saline); 104 % of control (dose: 200.0 mg/kg/injection, schedule: Q04DX003 (ip), vehicle: saline with Tween-80). Under “dose: 400.0 mg/kg/injection, schedule: Q04DX003 (ip), vehicle: saline with Tween-80”, the T/C was 104 % of control.
In the case of `O=C(O)Cc1c(-c2ccccc2)n[nH]c1-c1[nH]nc(-c2ccccc2)c1CC(=O)O`, the T/C under setting [7] is 95 % of control, the T/C under setting [8] is 95 % of control and the T/C under setting [9] was 104 % of control.
On to `CCCCCC1OC1CC1OC1CCCCCCCC(=O)OC` (stereo not drawn), for which the T/C was 96 % of control under setting [1], 96 % of control under setting [2] and 104 % of control under setting [3].
Consider `COc1ccc(-c2cc(-c3ccccc3)c(-c3ccccc3)nn2)cc1CN1CCOCC1`, for which the T/C under setting [11] is 99 % of control, the T/C under setting [13] is 100 % of control and the T/C under setting [15] is 95 % of control.
In the case of `CC1CCC2(C)CCC3(C)C4=CCC5C(C)(C)C(O)CCC5(C)C4CCC3(C)C2C1C` (stereo not drawn), the T/C by setting is: (dose: 200.0 mg/kg/injection, schedule: Q04DX003 (ip), vehicle: other) 95 % of control; (dose: 400.0 mg/kg/injection, schedule: Q04DX003 (ip), vehicle: other) 100 % of control.
For `CC(C)CC(NC(=O)C(Cc1cnc[nH]1)NC(=O)OCc1ccccc1)C(=O)O` (stereo not drawn) (Cbz-His-Leu-OH; configuration not given here), the T/C was 102 % of control under setting [1], 104 % of control under setting [2] and 104 % of control under setting [3].
As for `CCn1c2ccc(C(=O)CCCN(C)C)cc2c2cc(C(=O)CCCN(C)C)ccc21`, the T/C is 118 % of control and 122 % of control (dose: 12.5 mg/kg/injection, schedule: Q01DX009 (ip), vehicle: saline); 108 % of control and 116 % of control (dose: 25.0 mg/kg/injection, schedule: Q01DX009 (ip), vehicle: saline).
For the molecule `c1ccc2c(c1)ncc1cccn12`, the T/C is 106 % of control under setting [10]; 107 % of control under setting [12]; 105 % of control under setting [14]; 106 % of control (dose: 400.0 mg/kg/injection, schedule: Q01DX009 (ip), vehicle: Klucel (hydroxypropylcellulose) (HPC)).
For the molecule `C/C(N)=N\O`, the T/C under setting [16] is 94 % of control; the T/C under setting [17] was 114 % of control; the T/C (dose: 200.0 mg/kg/injection, schedule: Q01DX009 (ip), vehicle: saline) is 104 % of control.
With `Cc1[nH]c(=O)[nH]c(=O)c1/C=C/C(=O)NC(CO)CS(C)=O` (stereo not drawn), the T/C is 108 % of control (dose: 0.07 mg/kg/injection, schedule: Q01DX009 (ip), vehicle: water); 106 % of control and 100 % of control (dose: 0.15 mg/kg/injection, schedule: Q01DX009 (ip), vehicle: water); 92 % of control and 110 % of control (dose: 0.3 mg/kg/injection, schedule: Q01DX009 (ip), vehicle: water); 98 % of control and 110 % of control (dose: 0.6 mg/kg/injection, schedule: Q01DX009 (ip), vehicle: water); 112 % of control (dose: 1.2 mg/kg/injection, schedule: Q01DX009 (ip), vehicle: water); 118 % of control (dose: 2.0 mg/kg/injection, schedule: Q01DX009 (ip), vehicle: water). In addition, the T/C is 120 % of control (dose: 4.0 mg/kg/injection, schedule: Q01DX009 (ip), vehicle: water); 111 % of control (dose: 16.0 mg/kg/injection, schedule: Q01DX009 (ip), vehicle: water); 102 % of control (dose: 40.0 mg/kg/injection, schedule: Q01DX009 (ip), vehicle: water); 116 % of control and 123 % of control (dose: 64.0 mg/kg/injection, schedule: Q01DX009 (ip), vehicle: water); 124 % of control (dose: 128.0 mg/kg/injection, schedule: Q01DX009 (ip), vehicle: water).
As to `COC(OC)C(C)(C)NC1CCCCC1`, the T/C under setting [16] was 105 % of control and the T/C under setting [17] is 104 % of control.
Regarding `COc1cccc(NC(=S)NCc2cccnc2)c1`, the T/C runs as follows: under setting [10], 101 % of control; under setting [12], 91 % of control; under setting [14], 111 % of control.
As for `COc1ccc2c(c1[N+](=O)[O-])CCCC(Br)(Br)C2=O`, the T/C runs as follows: under setting [10], 107 % of control; under setting [12], 107 % of control; under setting [14], 108 % of control.

(Values after PubChem BioAssay AID330 (DTP/NCI, 2004).)
